Experimental data: ChEMBL document CHEMBL3414561, “Discovery of 4'-chloromethyl-2'-deoxy-3',5'-di-O-isobutyryl-2'-fluorocytidine (ALS-8176), a first-in-class RSV polymerase inhibitor for treatment of human respiratory syncytial virus infection” (J Med Chem, 2015)
Active and inactive are the calls of the source. The rule behind the calls is not given here.

What was measured:
[1] = Cytotoxicity against human HeLa cells assessed as cell viability by CellTiter-Glo luminescent assay; assay type: cell-based
[2] = tested on: Respiratory syncytial virus; test: Antiviral activity against Respiratory syncytial virus subgenomic replicon system in 395 HeLa cells assessed as reduction in viral replication after 7 days by renilla luciferase assay; assay type: functional, organism-based; conditions: human respiratory syncytial virus, 168 h
[3] = Inhibition of Respiratory syncytial virus RNA polymerase in crude RSV RNP complex assessed as inhibition of [33P]CMP incorporation into RNA chain
[4] = target: DNA-directed RNA polymerase, mitochondrial (Homo sapiens) (UniProt O00411); test: Binding affinity to human mitochondrial RNA polymerase assessed as compound incorporation using [33P]RNA/DNA primer/templates used by […] gel electrophoresis
Sequence of DNA-directed RNA polymerase, mitochondrial (Homo sapiens) (O00411 whole entry): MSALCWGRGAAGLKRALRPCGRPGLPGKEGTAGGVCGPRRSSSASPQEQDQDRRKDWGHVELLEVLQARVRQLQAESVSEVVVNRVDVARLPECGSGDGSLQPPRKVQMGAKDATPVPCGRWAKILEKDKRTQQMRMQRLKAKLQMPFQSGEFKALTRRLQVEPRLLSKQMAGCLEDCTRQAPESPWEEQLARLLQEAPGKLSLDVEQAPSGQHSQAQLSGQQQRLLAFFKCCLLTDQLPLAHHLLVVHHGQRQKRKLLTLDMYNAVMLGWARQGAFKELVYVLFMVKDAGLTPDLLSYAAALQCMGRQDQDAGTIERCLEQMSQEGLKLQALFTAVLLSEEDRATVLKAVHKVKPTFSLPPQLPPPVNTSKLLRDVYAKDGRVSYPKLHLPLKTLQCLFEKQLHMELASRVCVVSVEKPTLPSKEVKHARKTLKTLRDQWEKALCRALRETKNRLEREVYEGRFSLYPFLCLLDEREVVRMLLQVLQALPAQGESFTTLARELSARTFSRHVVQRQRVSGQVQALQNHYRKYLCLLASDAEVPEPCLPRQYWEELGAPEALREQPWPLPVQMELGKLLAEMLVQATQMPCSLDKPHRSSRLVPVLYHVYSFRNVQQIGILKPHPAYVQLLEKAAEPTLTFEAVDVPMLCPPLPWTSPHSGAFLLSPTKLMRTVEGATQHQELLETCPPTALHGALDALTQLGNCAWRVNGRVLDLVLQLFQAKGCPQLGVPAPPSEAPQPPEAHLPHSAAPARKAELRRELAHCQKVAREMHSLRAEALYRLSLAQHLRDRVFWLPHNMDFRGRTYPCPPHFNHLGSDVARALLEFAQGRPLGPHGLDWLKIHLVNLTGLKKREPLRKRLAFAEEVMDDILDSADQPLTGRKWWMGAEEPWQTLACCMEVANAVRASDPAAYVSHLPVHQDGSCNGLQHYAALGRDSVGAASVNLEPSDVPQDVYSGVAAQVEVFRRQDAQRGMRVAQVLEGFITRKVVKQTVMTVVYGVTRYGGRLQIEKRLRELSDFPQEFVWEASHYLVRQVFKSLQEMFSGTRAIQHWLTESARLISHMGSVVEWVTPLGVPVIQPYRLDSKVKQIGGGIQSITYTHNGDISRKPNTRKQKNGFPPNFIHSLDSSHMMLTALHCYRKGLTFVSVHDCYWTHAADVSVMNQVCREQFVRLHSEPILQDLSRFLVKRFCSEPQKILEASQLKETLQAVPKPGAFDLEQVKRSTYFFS

[5] = target: DNA-directed RNA polymerase, mitochondrial (Homo sapiens) (UniProt O00411); test: Inhibition of human mitochondrial RNA polymerase assessed as 13-mer product using [33P]RNA/DNA primer/templates used by […] gel electrophoresis
Homo sapiens [6] = species: Homo sapiens; test: Inhibition of human DNA-dependent DNA polymerase alpha using calf thymus DNA/[3H]dTTP as substrate by microplate scintillation reader; conditions: concentration not given here
[7] = target: DNA polymerase beta (Homo sapiens) (UniProt P06746); test: Inhibition of human DNA-dependent DNA polymerase beta using calf thymus DNA/[3H]dTTP as substrate by microplate scintillation reader; conditions: concentration not given here
Homo sapiens [8] = species: Homo sapiens; test: Inhibition of human DNA-directed RNA polymerase 2 using cytomegalovirus DNA fragment as substrate; conditions: concentration not given here
Homo sapiens [9] = species: Homo sapiens; test: Inhibition of human DNA-dependent DNA polymerase gamma using calf thymus DNA/[3H]dTTP as substrate by microplate scintillation reader; conditions: concentration not given here

| SMILES | CC50 [1] [nM] | EC50 [2] [nM] | IC50 [3] [nM] | also measured |
| --- | --- | --- | --- | --- |
| C=C[C@]1(CO)O[C@@H](n2ccc(N)nc2=O)[C@H](F)[C@@H]1O | > 100000 | 1910 | – | – |
| [N-]=[N+]=N[C@]1(COP(=O)(O)OP(=O)(O)OP(=O)(O)O)O[C@@H](n2ccc(N)nc2=O)[C@H](F)[C@@H]1O | – | – | 100 | Activity [4]: Active; inhibition [5]: Active |
| Nc1ccn([C@@H]2O[C@H](COP(=O)(O)OP(=O)(O)OP(=O)(O)O)[C@@H](O)C2(F)F)c(=O)n1 | – | – | – | Activity [4]: Active; inhibition [5]: Active |
| Nc1ccn([C@@H]2O[C@@](CO)(CCl)[C@@H](O)C2(F)F)c(=O)n1 | 62000 | 65000 | – | – |
| CC(C)C(=O)OC[C@@]1(CCl)O[C@@H](n2ccc(N)nc2=O)[C@H](F)[C@@H]1O | > 90000 | 100 | – | – |
| [N-]=[N+]=N[C@]1(COP(=O)(O)OP(=O)(O)OP(=O)(O)O)O[C@@H](n2ccc(N)nc2=O)[C@H](O)[C@@H]1O | – | – | 240 | – |
| C=CC[C@]1(CO)O[C@@H](n2ccc(N)nc2=O)[C@H](F)[C@@H]1O | > 100000 | 2640 | – | – |
| [N-]=[N+]=N[C@]1(CO)O[C@@H](n2ccc(N)nc2=O)[C@H](O)[C@@H]1O [4'-AZIDOCYTIDINE] | > 80000 | 670 | – | – |
| Nc1ccn([C@@H]2O[C@](CCl)(COP(=O)(O)OP(=O)(O)OP(=O)(O)O)[C@@H](O)[C@H]2F)c(=O)n1 | – | – | 20 | inhibition (Homo sapiens [6]): < 50%; inhibition [7]: < 50%; inhibition (Homo sapiens [8]): < 50%; inhibition (Homo sapiens [9]): < 50%; inhibition [5]: inactive |
| Nc1ccn([C@@H]2O[C@@](CO)(CCl)[C@@H](O)[C@H]2O)c(=O)n1 | > 100000 | > 100000 | – | – |
| CC[C@]1(COP(=O)(O)OP(=O)(O)OP(=O)(O)O)O[C@@H](n2ccc(N)nc2=O)[C@H](F)[C@@H]1O | – | – | 150 | inhibition (Homo sapiens [6]): < 50%; inhibition [7]: < 50%; inhibition (Homo sapiens [8]): < 50%; inhibition (Homo sapiens [9]): < 50%; inhibition [5]: inactive |
| Nc1ccn([C@@H]2O[C@H](COP(=O)(O)OP(=O)(O)OP(=O)(O)O)[C@@H](O)[C@@H]2O)c(=O)n1 | – | – | – | Activity [4]: Active; inhibition [5]: Active |
| CO[C@]1(COP(=O)(O)OP(=O)(O)OP(=O)(O)O)O[C@@H](n2ccc(N)nc2=O)[C@H](F)[C@@H]1O | – | – | 70 | – |
| CC(C)[C@H](N)C(=O)OC[C@@]1(CCl)O[C@@H](n2ccc(N)nc2=O)[C@H](F)[C@@H]1O | > 100000 | 40 | – | – |
| C#C[C@]1(CO)O[C@@H](n2ccc(N)nc2=O)[C@H](F)[C@@H]1O | > 100000 | 1120 | – | – |
| CCC[C@]1(CO)O[C@@H](n2ccc(N)nc2=O)[C@H](F)[C@@H]1O | > 100000 | 2690 | – | – |
| Nc1ccn([C@@H]2O[C@H](COP(=O)(O)OP(=O)(O)OP(=O)(O)O)[C@@H](O)[C@H]2F)c(=O)n1 | – | – | – | Activity [4]: Active; inhibition [5]: Active |
| C=C[C@]1(COP(=O)(O)OP(=O)(O)OP(=O)(O)O)O[C@@H](n2ccc(N)nc2=O)[C@H](F)[C@@H]1O | – | – | 90 | – |
| [N-]=[N+]=N[C@]1(CO)O[C@@H](n2ccc(N)nc2=O)C(F)(F)[C@@H]1O | > 100000 | 750 | – | – |
| C[C@]1(COP(=O)(O)OP(=O)(O)OP(=O)(O)O)O[C@@H](n2ccc(N)nc2=O)[C@H](F)[C@@H]1O | – | – | 10 | – |
| CCCCCCCC(=O)OC[C@@]1(CCl)O[C@@H](n2ccc(N)nc2=O)[C@H](F)[C@@H]1O | > 100000 | 30 | – | – |
| Nc1ccn([C@@H]2O[C@](CCl)(COP(=O)(O)OP(=O)(O)OP(=O)(O)O)[C@@H](O)[C@@H]2F)c(=O)n1 | – | – | 4900 | – |
| Nc1ccn([C@@H]2O[C@](CBr)(COP(=O)(O)OP(=O)(O)OP(=O)(O)O)[C@@H](O)[C@H]2F)c(=O)n1 | – | – | 150 | – |
| CCCCCCCCCCCC(=O)O[C@H]1[C@@H](F)[C@H](n2ccc(N)nc2=O)O[C@@]1(CO)CCl | > 89000 | 270 | – | – |
| CSC[C@]1(COP(=O)(O)OP(=O)(O)OP(=O)(O)O)O[C@@H](n2ccc(N)nc2=O)[C@H](F)[C@@H]1O | – | – | 2700 | – |
